“And” between values parts separate entries of the source, which are not always exact repeats. Equal values may be shown once. Inconclusive results and toxic doses are left out. Cut-off read from the data, not from the text of the source: active = T/C of 150% or more; inactive = T/C below 125%.
Test system: L1210 leukemia ip in BDF1 mice, survival T/C
Assay: NCI In Vivo Anticancer Drug Screen. Data for tumor model L1210 Leukemia (intraperitoneal) in B6D2F1 (BDF1) mice
Conditions: endpoint: mean survival time, higher = longer survival
Summary of the method: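 Tumor cells were implanted, animals were treated, and survival was followed. The result divides the treated measurement by the vehicle-control measurement.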

[1] = dose: 100.0 mg/kg/injection, schedule: Q01DX009 (ip), vehicle: saline
[2] = dose: 200.0 mg/kg/injection, schedule: Q01DX009 (ip), vehicle: saline
[3] = dose: 400.0 mg/kg/injection, schedule: Q01DX009 (ip), vehicle: saline
[4] = dose: 100.0 mg/kg/injection, schedule: Q01DX009 (ip), vehicle: Klucel (hydroxypropylcellulose) (HPC)
[5] = dose: 100.0 mg/kg/injection, schedule: Q04DX003 (ip), vehicle: Klucel (hydroxypropylcellulose) (HPC)
[6] = dose: 200.0 mg/kg/injection, schedule: Q01DX009 (ip), vehicle: Klucel (hydroxypropylcellulose) (HPC)
[7] = dose: 200.0 mg/kg/injection, schedule: Q04DX003 (ip), vehicle: Klucel (hydroxypropylcellulose) (HPC)
[8] = dose: 400.0 mg/kg/injection, schedule: Q01DX009 (ip), vehicle: Klucel (hydroxypropylcellulose) (HPC)
[9] = dose: 400.0 mg/kg/injection, schedule: Q04DX003 (ip), vehicle: Klucel (hydroxypropylcellulose) (HPC)
[10] = dose: 100.0 mg/kg/injection, schedule: Q04DX003 (ip), vehicle: saline
[11] = dose: 25.0 mg/kg/injection, schedule: Q04DX003 (ip), vehicle: saline
[12] = dose: 50.0 mg/kg/injection, schedule: Q04DX003 (ip), vehicle: saline
[13] = dose: 50.0 mg/kg/injection, schedule: Q01DX001 (ip), vehicle: saline
[14] = dose: 100.0 mg/kg/injection, schedule: Q01DX001 (ip), vehicle: saline
[15] = dose: 200.0 mg/kg/injection, schedule: Q01DX001 (ip), vehicle: saline
[16] = dose: 400.0 mg/kg/injection, schedule: Q01DX001 (ip), vehicle: saline
[17] = dose: 100.0 mg/kg/injection, schedule: Q04DX002 (ip), vehicle: Klucel (hydroxypropylcellulose) (HPC)
[18] = dose: 200.0 mg/kg/injection, schedule: Q04DX002 (ip), vehicle: Klucel (hydroxypropylcellulose) (HPC)
[19] = dose: 400.0 mg/kg/injection, schedule: Q04DX002 (ip), vehicle: Klucel (hydroxypropylcellulose) (HPC)
[20] = dose: 100.0 mg/kg/injection, schedule: Q04DX003 (ip), vehicle: saline with Tween-80
[21] = dose: 100.0 mg/kg/injection, schedule: Q01DX009 (ip), vehicle: saline with Tween-80
[22] = dose: 200.0 mg/kg/injection, schedule: Q01DX009 (ip), vehicle: saline with Tween-80

Measured: T/C

NC(=O)CCSCCC(N)=O
inactive: [1] 114 % of control | [2] 118 % of control | [3] 111 % of control

COc1ccc(NC(=O)c2cccc(C(=O)Nc3ccc(OC)cc3)c2)cc1
inactive: [4] 88 % of control | [5] 93 % of control | [6] 97 % of control | [7] 88 % of control | [8] 97 % of control | [9] 93 % of control

CCSc1ncc(C(N)=O)c(N)n1
inactive: [5] 97 % of control | [7] 100 % of control | [9] 92 % of control

O=C1C2CCN(CC2)C1C(c1ccccc1)c1ccccc1 (configuration not stated)
inactive: [10] 96 % of control | dose: 200.0 mg/kg/injection, schedule: Q04DX003 (ip), vehicle: saline 102 % of control | dose: 400.0 mg/kg/injection, schedule: Q04DX003 (ip), vehicle: saline 100 % of control

COc1cc([N+](=O)[O-])ccc1-c1c(C(=O)O)cccc1[N+](=O)[O-]
inactive: [5] 101 % of control | [7] 95 % of control | [9] 90 % of control

CC1(C)N=C(N)N=C(N)N1c1ccc(C(=O)c2ccccc2)cc1
inactive: [11] 96 % of control | [12] 89 % of control

CC(=O)c1ccc(N2CCCCC2)cc1
inactive: [13] 96 % of control | [14] 94 % of control | [15] 100 % of control | [16] 94 % of control

CCN(CCO)C(=O)C1C(c2ccccc2)C1c1ccccc1 (configuration not stated)
inactive: [17] 97 % of control | [18] 100 % of control | [19] 90 % of control

COc1cc(C=Nc2cccc(C(F)(F)F)c2)ccc1OC(=O)c1ccccc1
inactive: [4] 86 % of control | [6] 94 % of control | [8] 91 % of control

CC(C)(C)CN=C(N)N
inactive: [14] 96 % of control | [15] 94 % of control | [16] 102 % of control

N/N=C(\N)N(Cc1ccccc1)c1ccccc1
inactive: dose: 7.5 mg/kg/injection, schedule: Q01DX001 (ip), vehicle: saline 94 % of control | dose: 7.5 mg/kg/injection, schedule: Q01DX009 (ip), vehicle: saline 96 % of control | dose: 7.5 mg/kg/injection, schedule: Q04DX003 (ip), vehicle: saline 97 % of control | dose: 15.0 mg/kg/injection, schedule: Q01DX001 (ip), vehicle: saline 92 % of control | dose: 15.0 mg/kg/injection, schedule: Q01DX009 (ip), vehicle: saline 94 % of control | dose: 15.0 mg/kg/injection, schedule: Q04DX003 (ip), vehicle: saline 95 % of control | dose: 30.0 mg/kg/injection, schedule: Q01DX001 (ip), vehicle: saline 100 % of control | dose: 30.0 mg/kg/injection, schedule: Q01DX009 (ip), vehicle: saline 102 % of control | dose: 30.0 mg/kg/injection, schedule: Q04DX003 (ip), vehicle: saline 97 % of control

N=C(N)SCCN1C(=O)c2ccccc2C1=O
inactive: [20] 103 % of control

C=C(C)c1ccc(C)cc1-c1c(OCc2ccccc2)ccc(CCCCC)c1OC
inactive: dose: 100.0 mg/kg/injection, schedule: Q01DX001 (ip), vehicle: Klucel (hydroxypropylcellulose) (HPC) 97 % of control | dose: 200.0 mg/kg/injection, schedule: Q01DX001 (ip), vehicle: Klucel (hydroxypropylcellulose) (HPC) 92 % of control | dose: 400.0 mg/kg/injection, schedule: Q01DX001 (ip), vehicle: Klucel (hydroxypropylcellulose) (HPC) 92 % of control

Clc1c(Cl)c(Cl)c([S][Pb]([c]2ccccc2)([c]2ccccc2)[c]2ccccc2)c(Cl)c1Cl
inactive: dose: 6.25 mg/kg/injection, schedule: Q01DX009 (ip), vehicle: saline with Tween-80 101 % of control | dose: 12.5 mg/kg/injection, schedule: Q01DX009 (ip), vehicle: saline with Tween-80 103 % of control | dose: 25.0 mg/kg/injection, schedule: Q01DX009 (ip), vehicle: saline with Tween-80 104 % of control and 88 % of control | dose: 25.0 mg/kg/injection, schedule: Q04DX002 (ip), vehicle: saline with Tween-80 96 % of control | dose: 50.0 mg/kg/injection, schedule: Q04DX002 (ip), vehicle: saline with Tween-80 99 % of control | dose: 100.0 mg/kg/injection, schedule: Q04DX002 (ip), vehicle: saline with Tween-80 86 % of control and 88 % of control

CCOC(=O)c1cc(OC)c[nH]1
inactive: [13] 100 % of control | [14] 94 % of control | [15] 88 % of control | [16] 105 % of control

CN(C)C(=S)OCC(C)(C)C
inactive: [20] 113 % of control | dose: 200.0 mg/kg/injection, schedule: Q04DX003 (ip), vehicle: saline with Tween-80 100 % of control | dose: 400.0 mg/kg/injection, schedule: Q04DX003 (ip), vehicle: saline with Tween-80 97 % of control

CC(C)N(C(=O)CSc1c(Cl)c(Cl)c(Cl)c(Cl)c1Cl)C(C)C
inactive: dose: 100.0 mg/kg/injection, schedule: Q04DX002 (ip), vehicle: other 107 % of control and 113 % of control | dose: 100.0 mg/kg/injection, schedule: Q04DX003 (ip), vehicle: other 89 % of control and 91 % of control | dose: 200.0 mg/kg/injection, schedule: Q04DX002 (ip), vehicle: other 95 % of control and 106 % of control | dose: 200.0 mg/kg/injection, schedule: Q04DX003 (ip), vehicle: other 96 % of control and 91 % of control | dose: 400.0 mg/kg/injection, schedule: Q04DX003 (ip), vehicle: other 94 % of control

NC(=O)CCl
inactive: dose: 12.5 mg/kg/injection, schedule: Q04DX003 (ip), vehicle: Klucel (hydroxypropylcellulose) (HPC) 92 % of control | dose: 25.0 mg/kg/injection, schedule: Q04DX003 (ip), vehicle: Klucel (hydroxypropylcellulose) (HPC) 95 % of control | [11] 102 % of control | dose: 50.0 mg/kg/injection, schedule: Q04DX003 (ip), vehicle: Klucel (hydroxypropylcellulose) (HPC) 100 % of control | [12] 97 % of control | [5] 101 % of control | [10] 100 % of control

O=C(CC(NC(=O)OCc1ccccc1)C(=O)O)OCc1ccccc1 (configuration not stated)
inactive: dose: 100.0 mg/kg/injection, schedule: Q01DX009 (ip), vehicle: saline sonified 95 % of control | [21] 103 % of control | dose: 100.0 mg/kg/injection, schedule: Q04DX003 (ip), vehicle: saline sonified 97 % of control | dose: 200.0 mg/kg/injection, schedule: Q01DX009 (ip), vehicle: saline sonified 94 % of control | [22] 94 % of control | dose: 200.0 mg/kg/injection, schedule: Q04DX003 (ip), vehicle: saline sonified 89 % of control | dose: 400.0 mg/kg/injection, schedule: Q01DX009 (ip), vehicle: saline sonified 90 % of control | dose: 400.0 mg/kg/injection, schedule: Q01DX009 (ip), vehicle: saline with Tween-80 94 % of control | dose: 400.0 mg/kg/injection, schedule: Q04DX003 (ip), vehicle: saline sonified 103 % of control

N#CNS(=O)(=O)c1ccccc1
inactive: [14] 98 % of control | [15] 92 % of control | [16] 98 % of control

O=C(O)COc1cccc(Cl)c1F
inactive: [17] 100 % of control | [18] 107 % of control | [19] 118 % of control

CCCCNC(=O)/C=C\C(=O)O
inactive: dose: 50.0 mg/kg/injection, schedule: Q01DX009 (ip), vehicle: saline with Tween-80 95 % of control | [4] 87 % of control | [21] 97 % of control | [1] 92 % of control | [5] 100 % of control | [6] 87 % of control | [22] 95 % of control | [2] 94 % of control | [8] 100 % of control | [3] 97 % of control | [9] 87 % of control
